Patent publication US11826369B2, “Targeting the TLK1/NEK1 axis in prostate cancer” (Board of Supervisors of Louisiana State University and …, priority 2019, dated 2023)
“And” between values parts separate entries of the source, which are not always exact repeats. Identical values can stand only once.

Legend:
[1] = tested on: LNCaP, C4-2B, 22RV1, DU14, PC3, TRAMP-C2; test: Cell proliferation assays of PCa cell line panel; assay type: cell-based; details: androgen containing medium (FBS)
Experimental: (§1) All experiments were conducted in triplicates. […] The cells were grown for 2-3 weeks and stained with crystal violet. All experiments were conducted in triplicates. […] The cell lines used were human “normal” RWPE-1, LNCaP, (LNCaP-derivative) C4-2B, 22RV1, DU14, PC3, and mouse TRAMP-C2. FIGS. 11C and 11D show cell proliferation of LNCaP and TRAMP-C2 were determined during a 3 days incubation with different concentration of J54 (MTS assay). All experiments were conducted in triplicates. […] Representative analysis of two independent experiments are shown.
(§2) J54 in combination with anti-androgen (Bicalutamide) induces apoptosis in AS PCa cells. […] The inventors thus tested the same panel of cells in androgen containing medium (FBS) by proliferation assays. […] Note that VCaP cells were 60% inhibited by J54 alone, consistent with their elevated replication stress-driven DDR and checkpoint activation (FIG. 12E), which when suppressed with J54 could lead to apoptosis. Clonogenic assays are unable to distinguish the effects of a DNA damaging agent, which can result in either an impaired or delayed resumption of growth (cell division) or loss of viability due to increased killing of the initial population. The inventors thus measured in LNCaP and TRAMP-C2 cells the early change in cell number (MTT assay) over 72 h with J54 alone.

[2] = Pharmacokinetics, plasma distribution after IP injection; assay type: in vivo, mice
Text: FIGS. 18A-18C show pharmacokinetics plasma distribution of J54.
(§3) The inventors sought to establish if the addition of J54 could suppress the resurgence of tumor growth of LNCaP xenografts and their latter conversion to CRPC. Following formation of sizeable tumors (˜200 mm^3), castration or anti-androgens arrest the progression of LNCaP xenografts for some time (2-3 weeks), while subsequently the tumors start growing again at an accelerated rate which is refractory to ADT (AI). Therefore, the inventors injected LNCaP cells in matrigel in both flanks of NOD-SCID mice, and then randomly assigned them to four treatment groups (n=5 per group×2 independent experiments), as shown in FIGS. 13A-13C. […] The inventors should also point out that the inventors treated the mice with J54 only bi-weekly due to the favorable pharmacokinetics, where maximal plasma concentration of 100 ng/ml ([…]) were reached 2 h after IP injection, and was still present at −6 ng/ml (6 μM) after 24 h (FIG. 18A-18C).

[3] = tested on: LNCaP, VCaP and TRAMP-C2; test: Clonogenic assays of AS PCa cells; assay type: cell-based
Experimental: as §1, §2

[4] = tested on: LNCaP xenografts; test: LNCaP xenograft model; assay type: in vivo, NOD/SCID mice; details: IP bi-weekly
Experimental: Treatment started 19 days after implantation when the tumors measure ˜200 mm^3. Two independent experiment with 5 mice per group were carried out. J54 and Bicalutamide was dissolved in DMSO and diluted in corn oil 1:10 and administered IP bi-weekly. Sectioning and processing of the tissues were carried out in the FWCC Histology Service, using automated processes and equipment to provide uniform and standardized results. Indirect labeling was with ABC Elite: RTU Vectastain Elite Reagent, Vector #PK-7100; DAB: ImmPact DAB, Vector #SK-4105. Light counterstaining was done with hematoxylin. […] Note the weak pNek1 stain in the tumor from mice treated with J54, in contrast to the increase seen with BIC.
LNCaP Xenograft Model and Immunohistochemistry (IHC): All animals used in this study were approved by LSUHSC IACUC and following ARRIVE guidelines. Male NOD/SCID mice (5 per group) were purchased from Jackson labs. LNCaP cells were injected as described earlier. Mice were treated IP bi-weekly with J54 (5 mg/kg body weight—dose estimation derived from pharmacokinetics study) and/or Bicalutamide (100 mg/kg).
as §3

[5] = tested on: C. elegans; test: Behavioral assays in C. elegans; assay type: in vivo
Experimental: FIGS. 19A-19C show behavioral assays in C. elegans. In FIG. 15A, for the pharyngeal pumping assay, wild-type animals (N2 strain) were transferred to plates with diluted DMSO (Control) or drug (J-54 or trifluoperazine) at 160 μM final concentration for 90 min before quantifying pharyngeal pumping see SI methods). The inventors counted visible movement of the grinder (pharyngeal contractions) for 30 sec to obtain the pumping rate (N=45). […] Inhibition of pharyngeal pumping by trifluoperazine (TFP), a typical PTH antipsychotic, is attributed to its known activity as a dopamine and calmodulin antagonist. In FIG. 15B. foraging, regulated by serotonin and dopamine, was studied in wild-type animals evaluated in the presence of DMSO (Control) or J54 at a high dose of 160 μM vs. TFP at 40 μM. The number of omega turns (head touches body) and reversals were then counted over the next 3 min to quantify search behavior for each group (N=13 per group). […] Dopamine produces immobility in C. elegans after 2-3 hr of exposure. Antipsychotic drugs, such as haloperidol, that potently block D2 dopamine receptors largely counteract the effects of dopamine, i.e., more animals continue to move on plates that include dopamine plus drug. Wild-type animals were incubated on 60 agar plates with bacteria and diluted DMSO (Control) or J54 or haloperidol at 160 μM final concentrations. After 1 hr on these plates, they were transferred to 60 mm agar plates with bacteria that also contained dopamine (final concentration 25 mM) plus diluted DMSO (Control) or else J-54 or haloperidol at final concentrations of 160 μM. After 3 hr on the dopamine plates, the inventors examined movement and counted animals as moving if they traversed half their body length in either the forward or backward direction during a 5-sec observation period. The inventors then calculated the percentage of animals moving and repeated this experiment three times to confirm the effects of drug.
We then did a general assessment of mice following injections of J54. […]

## c1ccc2c(c1)Sc1ccccc1N2CCN1CCOCC1 [J54, 4-(2-(10H-phenothiazin-10-yl)ethyl) morpholine]
[1]
  concentration of maximal efficacy: around 18 μM
  inhibition of proliferation: weak dose-dependent inhibition
[2]; IP injection
  maximal plasma concentration: 100 ng/ml and 35 μM
[2]; after IP injection
  time of maximal plasma concentration: 2 h
[2]; mouse, plasma, IP injection
  concentration at 24 h: 6 µM
[3]
  growth of colonies of LNCaP cells cultured with BIC: suppresses the growth of androgen-dependent colonies
[4]; end of treatment
  tumor weight: significant suppression
[4]; J54 5 mg/kg, Bicalutamide 100 mg/kg
  tumor growth: significant suppression
[5]; 160 μM, 90 min
  pharyngeal pumping rate: reduced the pumping rate but to a lesser extent than a much lower concentration of TFP
[5]; prolonged exposure
  toxicity to worms: not toxic to worms even after prolonged exposure
[5]; three studies
  behavioral effects attributable to DR2 activity: much weaker behavioral effects
